Source: PMC10818719 (Viruses, 2023)
Where two headings read alike, the source gives them in different places.

Legend:
MDBK cells [1] = details: for IC50: no BCoV
[2] = system: bovine coronavirus (BCoV); assay type: cell-based, Beta-coronavirus 1; details: with irradiation, MDBK cells
[3] = system: bovine coronavirus (BCoV) strain S379 Riems; assay type: cell-based, Beta-coronavirus 1; details: for EC100 (100% Viable Cells): BCoV MOI = 1, with irradiation
[4] = system: bovine coronavirus (BCoV); assay type: cell-based, Beta-coronavirus 1
[5] = system: human adenovirus type 5 (HAdV5); design: method as in ref 16 = [16]; details: combined virucidal and irradiation effects; cited from earlier work
[6] = system: avian H5N8 influenza virus; details: cited from earlier work
SARS-CoV-2 [7] = system: SARS-CoV-2; design: method as in ref 19 = [19]; details: in combination with far red light irradiation; cited from earlier work
SARS-CoV-2 [8] = details: 1% MB, cited from earlier work
SARS-CoV-2 [9] = details: irradiation with a wave length of λ = 662 nm; cited from earlier work
BCoV = system: BCoV; design: method as in ref 48 = [48]; details: independently of light; cited from earlier work
vaccinia viruses = details: 30 µM of MB + PDI; not virus antigenicity; cited from earlier work
MDBK cells [10] = experiment: cells; details: Bos taurus

Cc1cc2nc3ccc(N(C)C)cc3[s+]c2cc1N.[Cl-] [TBO, toluidine blue O]
MNC (maximal nontoxic concentration) (MDBK cells [1]; 24 h incubation): 0.66 µM | IC50 (MDBK cells [1]; 24 h incubation): 970 nM | MNC (maximal nontoxic concentration) (MDBK cells [1]; 48 h incubation): 0.35 µM | IC50 (MDBK cells [1]; 48 h incubation): 520 nM | MNC (maximal nontoxic concentration) (MDBK cells [1]; 72 h incubation): 0.59 µM | IC50 (MDBK cells [1]; 72 h incubation): 850 nM | fold lower IC50 of TBO than MB (MDBK cells [1]; 72 h of incubation): 2.12 fold | concentrations up to which permissive cells were observed [2]: up to 0.01 µM | fold higher SI of TBO than MB [3]: 1.7 fold | fold lower EC50 (fold more active) of TBO than MB ([3]; 50% BCoV inactivation, with irradiation): 3.6 fold | EC50 ([3]; BCoV MOI = 1, irradiation 54 J/cm^2 (680 nm) for MB, 99 J/cm^2 (635 nm) for TBO, MDBK cells, MTT, read-out: EC50 (50% Viable Cells)): 5 nM | EC100 (100% Viable Cells) ([3]; MDBK cells, MTT): 0.02 µM | SI (IC50/EC50) ([3]; IC50 in MDBK cells / EC50 for direct BCoV inactivation with irradiation): 170 | concentration resulting in strong inactivation of BCoV ([3]; irradiation 680 nm and 54 J/cm^2 for MB, 635 nm and 99 J/cm^2 for TBO, Figure 7): ≥ 0.02 µM | fold more effective than MB, based on the active concentrations ([3]; with irradiation): 25 fold | viable cells ([3]; without irradiation, 0.25 µM, Figure 7b): 80% | decrease of the fraction of viable cells (cytotoxic) ([3]; without irradiation, concentration increased above 0.25 µM, Figure 7b): approximately 50% | decrease in the number of viral cDNA [4]: ~ 6 log/mL | Δlog cDNA/mL vs. Virus Control ([4]; TBO 0.02 µM): 1.08 × 10^3 | Δlog cDNA/mL vs. Virus Control ([4]; TBO 0.30 µM): 5.91 × 10^6

tetra-methylpyridyloxy-substituted Ga phthalocyanine [Ga4]
PDI potential on naked viruses, especially on HAdV5 [5]: remarkable PDI potential

octa-methylpyridyloxy-substituted Ga phthalocyanine [Ga8]
PDI potential on naked viruses, especially on HAdV5 [5]: remarkable PDI potential

octakis (cholinyl) zinc phthalocyanine [Zn-PcChol8+]
sensitivity of the virus to PDI [6]: sensitive to PDI | infectivity of SARS-CoV-2 (SARS-CoV-2 [7]): completely destroyed the infectivity

CN(C)c1ccc2nc3ccc(=[N+](C)C)cc-3sc2c1 [MB, Methylene blue]
SARS-CoV-2 virus load (SARS-CoV-2 [8]; gargling or spraying in the nasal cavity, early stages of the infection): sufficient reduction of the SARS-CoV-2 virus load | adverse effects (SARS-CoV-2 [8]; local application, even in patients with co-morbidities): lack of adverse effects | protection of Vero E6 cells from infection (SARS-CoV-2 [9]): fully protected | concentrations up to which permissive cells were observed [2]: up to 0.075 µM | concentration at which light-independent antiviral activity was observed (BCoV): ≥ 1 µM | effect on virus infectivity (vaccinia viruses): loss of virus infectivity | IC50 (MDBK cells [10]; 24 h): 2540 nM | IC50 (MDBK cells [10]; 48 h): 1280 nM | IC50 (MDBK cells [10]; 72 h): 1800 nM | IC50 (MDBK cells [10]; read-out: IC50, range over the incubation periods): 1280 to 2540 nM | EC100 (100% Viable Cells) ([3]; MDBK cells, MTT): 0.15 µM | "dark" antiviral activity towards BCoV ([3]; without irradiation, highest tested concentration 0.3 µM, Figure 7a): not enough to achieve “dark” antiviral activity
